In article PMC5773487, “Harnessing insulin- and leptin-induced oxidation of PTP1B for therapeutic development” (Nature Communications, 2018):

Legend:
PTP1B-OX [1] = target: T1, PTP1B-OX (Homo sapiens, UniProt P18031); experiment: reduction and reactivation of reversibly oxidized PTP1B by TCEP, DiFMUP substrate; assay type: biochemical; conditions: for restoration of PTP1B-OX activity by TCEP in LOPAC primary screen: compound 10 μM; for IC50: wild-type PTP1B-OX, reactivation by TCEP, DiFMUP substrate, read-out: IC50 against PTP1B-OX
T1 construct: Purified PTP1B (1–321) (100 nM) was mixed with increasing concentrations of H2O2; 6xHis (C); made in house; host or cells: E. coli BL21 (DE3)-RIL
T1 sequence (P18031 1-321): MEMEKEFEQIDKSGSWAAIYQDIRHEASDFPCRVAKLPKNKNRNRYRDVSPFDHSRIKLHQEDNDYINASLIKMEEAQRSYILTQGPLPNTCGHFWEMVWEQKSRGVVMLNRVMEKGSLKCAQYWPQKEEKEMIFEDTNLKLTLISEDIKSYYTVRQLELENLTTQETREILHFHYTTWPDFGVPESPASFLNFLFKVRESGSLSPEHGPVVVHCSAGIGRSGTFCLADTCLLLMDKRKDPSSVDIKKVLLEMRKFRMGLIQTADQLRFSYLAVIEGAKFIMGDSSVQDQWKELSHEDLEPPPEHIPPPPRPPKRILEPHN
Method: Therefore, our approach has been to adapt this assay, which we used to screen for conformation-sensor scFvs[17], now to screen for small molecules that act through a similar mechanism. Our primary screening assay tested the ability of small molecule inhibitors to antagonize the reduction and reactivation of the oxidized conformation of PTP1B, similar to that of scFv45 (Fig. 4a).
(§1) Purified PTP1B (1–321) (100 nM) was mixed with increasing concentrations of H2O2 (0.05–100 mM) in phosphatase assay buffer (50 mM HEPES, pH 7.0, 100 mM NaCl, 0.1% BSA) at room temperature for 5 min. From this reaction mixture PTP1B (10 nM) was used to monitor phosphatase activity using DiFMUP as the substrate, with or without 5 mM TCEP. Activity of each sample was compared to that of the untreated PTP1B in the presence of 5 mM TCEP.
To screen the LOPAC library against PTP1B-OX, 0.5 μl of 1 mM compound in 100% DMSO was added to 384-well plates, resulting in a final compound concentration of 10 μM for the primary screen. Recombinant PTP1B (100 nM) was reversibly oxidized and inactivated with H2O2 (4 mM). The phosphatase activity was restored by a quick buffer exchange and addition of reducing agent (TCEP). PTP1B-OX was incubated with LOPAC compounds (10 μM) in the assay buffer (50 mM HEPES pH 7.0, 100 mM NaCl, 0.005% Tween, 2 mM EDTA) and the effect of individual compound on stabilizing the reversibly oxidized conformation was assessed by the phosphatase assay under reducing conditions using DiFMUP as substrate. scFv45 was used as positive control.

reduced PTP1B = target: T2, reduced PTP1B (Homo sapiens, UniProt P18031); experiment: phosphatase activity of reduced PTP1B, DiFMUP substrate; assay type: biochemical
T2 construct: Purified PTP1B (1–321) (100 nM) was mixed with increasing concentrations of H2O2; 6xHis (C); made in house; host or cells: E. coli BL21 (DE3)-RIL
T2 sequence (P18031 1-321): T1 sequence (P18031 1-321)
Method: Fig. 4 Identification and characterization of small molecules that mimic the effect of scFv45. a Reversibly oxidized PTP1B (PTP1B-OX) was generated by incubation with H2O2 in vitro, desalted, then assayed (20 nM) in the presence and absence of individual members of the LOPAC library. In the right panel, each dot represents an activity measurement. […] Data are representative of at least two independent experiments (n = 2). b Increasing concentration of sanguinarine was tested against reduced (circle) and oxidized (square) forms of PTP1B, using DiFMUP as substrate. c Increasing concentration of levamisole was tested against reduced (circle) and oxidized (square) PTP1B, using DiFMUP as substrate. d PTP1B-OX (200 nM) was incubated with sanguinarine (25 µM) for 5 min and the complex was diluted 100-fold and the activity was monitored for 120 min continuously. e PTP1B-OX (200 nM) was incubated with levamisole (40 µM) for 5 min and the complex was diluted 100-fold and the activity was monitored for 120 min continuously. f Increasing concentration of chelerythrine, an analog of sanguinarine, was tested against reduced (circle) and oxidized (square) forms of PTP1B, using DiFMUP as substrate. […] Individual data points represent the mean obtained from three separate experiments (n = 3; b–g)
as §1

PTP1B-OX [2] = target: T1, PTP1B-OX; experiment: reduction and reactivation of reversibly oxidized PTP1B by TCEP, DiFMUP substrate; assay type: biochemical; conditions: complex diluted 100-fold, activity monitored 120 min
PKC = conditions: cited from earlier work

| Compound | restoration of PTP1B-OX activity by TCEP in LOPAC primary screen (PTP1B-OX [1]) | IC50 (PTP1B-OX [1]) | inhibition of the reduced form of PTP1B (reduced PTP1B) | reversibility of PTP1B-OX inhibition (PTP1B-OX [2]) | inhibition of PKC (PKC) |
| --- | --- | --- | --- | --- | --- |
| c1ccc([C@H]2CN3CCSC3=N2)cc1 [levamisole] | only able to restore enzymatic activity partially | 36 µM | no effect | reversible | – |
| C[n+]1cc2c3c(ccc2c2ccc4cc5c(cc4c21)OCO5)OCO3 [sanguinarine] | only able to restore enzymatic activity partially | 25 µM | no effect | reversible | not an inhibitor |
